Columns and labels:
Experiment in all cases: Cytotoxicity assay, colorectal cancer cell line panel, onvansertib +/- 1 nM INBRX-109
Type in all cases: cell-based
[1] = system: COLO320DM; details: for EC50: Homo sapiens, COLO 320DM
Method: (§1) Monolayer cultures of each cell line were harvested for compound screening as detailed below.
(§2) Also on day 2, test and control articles were added.
(§3) On day 4, viability measurements were taken. […] Data was graphed in GraphPad Prism 9.
(§4) The results for a panel of colorectal cancer cell lines are shown in Table 3 and FIGS. 4-6, and the results for a panel of pancreatic cell lines are shown in Table 4 and FIGS. 7 and 8.

[2] = system: DLD-1; details: for Max Cytotox at 600 nM: DLD-1; for EC50: Homo sapiens, DLD-1, DLD-1
Method: as §1, §2, §3, §4

[3] = system: HCT 116; details: for Max Cytotox at 600 nM: HCT 116; for EC50: Homo sapiens, HCT-116, HCT 116
Method: as §1, §2, §3, §4

[4] = system: HCT-15; details: for Max Cytotox at 600 nM: HCT-15; for EC50: Homo sapiens, HCT-15, HCT-15
Method: as §1, §2, §3, §4

[5] = system: HCT-8; details: for Max Cytotox at 600 nM: HCT-8; for EC50: Homo sapiens, HCT-8, HCT-8
Method: as §1, §2, §3, §4

[6] = system: HT-29; details: for Max Cytotox at 600 nM: HT-29; for EC50: Homo sapiens, HT-29, HT-29
Method: as §1, §2, §3, §4

[7] = system: HT-55; details: for Max Cytotox at 600 nM: HT-55; for EC50: Homo sapiens, HT55, HT-55
Method: as §1, §2, §3, §4

[8] = system: Hutu 80; details: for EC50: Homo sapiens, HuTu80, Hutu 80; for Max Cytotox at 600 nM: Hutu 80
Method: as §1, §2, §3, §4

[9] = system: LS 1034; details: for EC50: Homo sapiens, LS-1034, LS 1034; for Max Cytotox at 600 nM: LS 1034
Method: as §1, §2, §3, §4

[10] = system: LS 123; details: for EC50: Homo sapiens, LS-123, LS 123; for Max Cytotox at 600 nM: LS 123
Method: as §1, §2, §3, §4

[11] = system: LS 180; details: for EC50: Homo sapiens, LS180, LS 180; for Max Cytotox at 600 nM: LS 180
Method: as §1, §2, §3, §4

[12] = system: LS 513; details: for EC50: Homo sapiens, LS-513, LS 513; for Max Cytotox at 600 nM: LS 513
Method: as §1, §2, §3, §4

[13] = system: LS174T; details: for EC50: Homo sapiens
Method: as §1, §2, §3, §4

[14] = system: LoVo; details: for EC50: Homo sapiens
Method: as §1, §2, §3, §4

[15] = system: NCI-H716; details: for EC50: Homo sapiens, NCI-H716, NCI-H716; for Max Cytotox at 600 nM: NCI-H716
Method: as §1, §2, §3, §4

SMILES: CN1CCN(c2ccc(OC(F)(F)F)c(Nc3ncc4c(n3)-c3c(c(C(N)=O)nn3CCO)CC4)c2)CC1 [Onvansertib]
- EC50 ([1]; onvansertib + 1 nM INBRX-109): 283 nM
- EC50 ([1]; onvansertib only): 382 nM
- Max Cytotox at 600 nM ([1]; onvansertib + 1 nM INBRX-109): 79.6%
- Max Cytotox at 600 nM ([1]; onvansertib only): 58.3%
- Max Cytotox at 600 nM ([2]; onvansertib + 1 nM INBRX-109): 90.4%
- Max Cytotox at 600 nM ([2]; onvansertib only): 45.8%
- EC50 ([2]; onvansertib + 1 nM INBRX-109): 184 nM
- EC50 ([2]; onvansertib only): 280 nM
- Max Cytotox at 600 nM ([3]; onvansertib + 1 nM INBRX-109): 96.6%
- Max Cytotox at 600 nM ([3]; onvansertib only): 76.0%
- EC50 ([3]; onvansertib + 1 nM INBRX-109): 66.8 nM
- EC50 ([3]; onvansertib only): 112 nM
- Max Cytotox at 600 nM ([4]; onvansertib + 1 nM INBRX-109): 94.9%
- Max Cytotox at 600 nM ([4]; onvansertib only): 61.4%
- EC50 ([4]; onvansertib + 1 nM INBRX-109): 175 nM
- EC50 ([4]; onvansertib only): 268 nM
- Max Cytotox at 600 nM ([5]; onvansertib + 1 nM INBRX-109): 81.3%
- Max Cytotox at 600 nM ([5]; onvansertib only): 52.7%
- EC50 ([5]; onvansertib + 1 nM INBRX-109): 200 nM
- EC50 ([5]; onvansertib only): 205 nM
- Max Cytotox at 600 nM ([6]; onvansertib + 1 nM INBRX-109): 98.3%
- Max Cytotox at 600 nM ([6]; onvansertib only): 45.6%
- EC50 ([6]; onvansertib + 1 nM INBRX-109): 43 nM
- EC50 ([6]; onvansertib only): 61.6 nM
- Max Cytotox at 600 nM ([7]; onvansertib + 1 nM INBRX-109): 87.9%
- Max Cytotox at 600 nM ([7]; onvansertib only): 41.8%
- EC50 ([7]; onvansertib + 1 nM INBRX-109): 44.1 nM
- EC50 ([7]; onvansertib only): 51.4 nM
- EC50 ([8]; onvansertib + 1 nM INBRX-109): 133 nM
- EC50 ([8]; onvansertib only): 138 nM
- Max Cytotox at 600 nM ([8]; onvansertib + 1 nM INBRX-109): 86.5%
- Max Cytotox at 600 nM ([8]; onvansertib only): 85.4%
- EC50 ([9]; onvansertib + 1 nM INBRX-109): 199 nM
- EC50 ([9]; onvansertib only): 237 nM
- Max Cytotox at 600 nM ([9]; onvansertib + 1 nM INBRX-109): 85.8%
- Max Cytotox at 600 nM ([9]; onvansertib only): 38.8%
- EC50 ([10]; onvansertib + 1 nM INBRX-109): 172 nM
- EC50 ([10]; onvansertib only): 150 nM
- Max Cytotox at 600 nM ([10]; onvansertib + 1 nM INBRX-109): 24.1%
- Max Cytotox at 600 nM ([10]; onvansertib only): 9.6%
- EC50 ([11]; onvansertib + 1 nM INBRX-109): 197 nM
- EC50 ([11]; onvansertib only): 505 nM
- Max Cytotox at 600 nM ([11]; onvansertib + 1 nM INBRX-109): 86.2%
- Max Cytotox at 600 nM ([11]; onvansertib only): 42.9%
- EC50 ([12]; onvansertib + 1 nM INBRX-109): 101 nM
- EC50 ([12]; onvansertib only): 215 nM
- Max Cytotox at 600 nM ([12]; onvansertib + 1 nM INBRX-109): 93.7%
- Max Cytotox at 600 nM ([12]; onvansertib only): 39.6%
- EC50 ([13]; onvansertib + 1 nM INBRX-109): 109 nM
- EC50 ([13]; onvansertib only): 252 nM
- Max Cytotox at 600 nM ([13]; onvansertib + 1 nM INBRX-109): 94.1%
- Max Cytotox at 600 nM ([13]; onvansertib only): 59.5%
- EC50 ([14]; onvansertib + 1 nM INBRX-109): 41.8 nM
- EC50 ([14]; onvansertib only): 34.1 nM
- Max Cytotox at 600 nM ([14]; onvansertib + 1 nM INBRX-109): 90.8%
- Max Cytotox at 600 nM ([14]; onvansertib only): 29.6%
- EC50 ([15]; onvansertib + 1 nM INBRX-109): 83.6 nM
- EC50 ([15]; onvansertib only): 81.3 nM
- Max Cytotox at 600 nM ([15]; onvansertib + 1 nM INBRX-109): 51.2%
- Max Cytotox at 600 nM ([15]; onvansertib only): 34.8%
